Converted amounts (≈) assume the structure as drawn.
Assays:
tubulin = conditions: 20° C.; compared with taxol
KB-3-1 = test: killing of drug sensitive (non-MDR) KB-3-1 cells; type: cell-based; conditions: Homo sapiens; KB-3-1 drug sensitive cells, Table III; read-out: KB-3-1 (IC50; nM)
[1] = system: L1210 mouse leukemia carcinoma cells; test: cytotoxicity / inhibition of cell proliferation in L1210 leukemia cells; type: cell-based; conditions: L1210 leukemia, Table I, 50% inhibition of cell proliferation vs untreated control, read-out: L1210 (IC50 μg/ml)
[2] = system: A2780 human ovarian carcinoma; test: cytotoxicity in A2780 human ovarian carcinoma cells; type: cell-based; conditions: A2780 human ovarian carcinoma, Table II; read-out: A2780 (IC50 μg/ml)
KB-V1 = test: killing of multidrug resistant KB-V1 cells; type: cell-based

Molecule	induction of tubulin polymerization in vitro (tubulin)	IC50 (KB-3-1)	IC50 [1]	IC50 [2]	IC50 (KB-V1; Homo sapiens, KB-V1 multidrug resistant cells, Table III, read-out: KB-V1 (IC50; nM))	Ratio: KBV-1/KB-3-1 (KB-V1; ratio of IC50 KB-V1 to IC50 KB-3-1)	average ratio (IC50 KB-V1/IC50 KB-3-1) (KB-V1; taxol and taxotere, average)
7-deoxy-7β,8β-methano-taxol	able to induce tubulin polymerization in vitro at 20 °C in a manner very similar to taxol						
CC(=O)O[C@@]12CO[C@@H]1C[C@H](O)[C@@]1(C)C(=O)[C@H](O)C3=C(C)[C@@H](OC(=O)[C@H](O)[C@@H](NC(=O)OC(C)(C)C)c4ccccc4)C[C@@](O)([C@@H](OC(=O)c4ccccc4)[C@H]21)C3(C)C [taxotere, reference compound]		0.25 nM	0.004 µg/mL (≈ 4.95 nM)	0.001 to 0.0016 µg/mL (≈ 1.24 to 1.98 nM)	1700 nM	7,570	7,570
